According to patent publication US20240116988A1, “ANTI-ROR1 MACROCYCLIC PEPTIDES AND COMPOSITIONS” (BRISTOL-MYERS SQUIBB COMPANY, priority 2022, published 2024):
Positions of bridges follow the written chain, without caps; N, C: chain ends. Non-standard residues stand in square brackets, D forms with d. Residues, ends and D or L forms follow the SMILES beside them. NMeF = CN[C@@H](Cc1ccccc1)C(=O)O; NMeNle = CCCC[C@H](NC)C(=O)O; NMeA = CN[C@@H](C)C(=O)O; AEEA = NCCOCCOCC(=O)O

Molecular target: T1, human ROR1 (Homo sapiens, UniProt Q01973)
T1 construct: host or cells: HEK 293T cells, Tet-on system induced with doxycycline
T1 sequence (Q01973 30-937): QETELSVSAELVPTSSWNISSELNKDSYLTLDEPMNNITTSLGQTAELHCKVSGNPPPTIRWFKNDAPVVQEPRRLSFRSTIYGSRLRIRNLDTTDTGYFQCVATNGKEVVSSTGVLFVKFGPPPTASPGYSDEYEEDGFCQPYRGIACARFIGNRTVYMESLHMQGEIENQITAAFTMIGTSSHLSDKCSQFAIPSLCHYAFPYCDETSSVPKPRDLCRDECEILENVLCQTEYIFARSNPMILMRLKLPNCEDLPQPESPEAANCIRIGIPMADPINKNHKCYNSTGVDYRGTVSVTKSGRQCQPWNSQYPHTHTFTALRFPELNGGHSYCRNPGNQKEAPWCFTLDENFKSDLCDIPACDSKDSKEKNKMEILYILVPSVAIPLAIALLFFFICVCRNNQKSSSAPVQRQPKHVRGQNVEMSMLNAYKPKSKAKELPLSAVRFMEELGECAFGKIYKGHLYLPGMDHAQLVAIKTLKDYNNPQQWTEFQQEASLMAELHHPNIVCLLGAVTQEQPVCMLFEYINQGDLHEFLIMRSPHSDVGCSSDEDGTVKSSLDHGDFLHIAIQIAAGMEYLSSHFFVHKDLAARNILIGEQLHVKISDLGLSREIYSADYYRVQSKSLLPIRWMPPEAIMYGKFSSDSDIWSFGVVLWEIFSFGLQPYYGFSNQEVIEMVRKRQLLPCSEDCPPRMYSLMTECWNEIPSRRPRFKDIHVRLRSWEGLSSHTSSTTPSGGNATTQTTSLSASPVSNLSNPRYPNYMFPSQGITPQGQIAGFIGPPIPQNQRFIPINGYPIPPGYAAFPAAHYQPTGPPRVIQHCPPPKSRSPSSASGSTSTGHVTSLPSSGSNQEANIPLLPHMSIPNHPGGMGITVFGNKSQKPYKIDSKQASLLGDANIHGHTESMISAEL
Experiment: ROR1 high content cell-based binding assay
Details: read-out: ROR1 Binding 293T Human HC Cell Based Assay IC50
Procedure, shortened: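 Doxycycline-induced 293T cells expressing human ROR1, seeded overnight, were treated with compound plus 5-FAM-labeled ROR1-binding probe peptide (30 nM final) for 1 h at 37 °C. After washing and formaldehyde/Hoechst fixation, cell-bound probe fluorescence was read by high-content imaging.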

SMILES	IC50
CC(C)C[C@@H]1NC(=O)[C@H](Cc2ccccc2)NC(=O)CSC[C@@H](C(=O)NCC(N)=O)NC(=O)[C@H](CC(C)C)NC(=O)[C@H](Cc2ccccc2)N(C)C(=O)[C@H](Cc2ccc(O)cc2)NC(=O)[C@H](Cc2c[nH]c3ccccc23)NC(=O)CNC(=O)[C@H](CO)NC(=O)[C@H](Cc2ccc(O)cc2)NC(=O)[C@H](C(C)C)NC(=O)[C@H](Cc2c[nH]c3ccccc23)NC1=O [Example 1058] ({CH2CO}-FLWVYSGWY[NMeF]LCG-NH2; thioether N-12)	755 nM
CSCC[C@@H]1NC(=O)[C@H](Cc2ccccc2)N(C)C(=O)CNC(=O)[C@H](Cc2ccc(O)cc2)NC(=O)[C@H](Cc2ccccc2)NC(=O)CSC[C@@H](C(N)=O)NC(=O)[C@H](Cc2c[nH]c3ccccc23)NC(=O)[C@H](Cc2ccc(O)cc2)NC(=O)[C@H](CC(C)C)NC1=O [Example 1109] ({CH2CO}-FYG[NMeF]MLYWC-NH2; thioether N-9)	574 nM
CC(C)C[C@@H]1NC(=O)CSC[C@@H](C(=O)NCC(N)=O)NC(=O)[C@H](CC(C)C)NC(=O)[C@H](Cc2ccccc2)N(C)C(=O)[C@H](Cc2ccc(O)cc2)NC(=O)[C@H](Cc2c[nH]c3ccccc23)NC(=O)CNC(=O)[C@H](CO)NC(=O)[C@H](Cc2ccc(O)cc2)NC(=O)[C@H](C(C)C)NC(=O)[C@H](CC(C)C)NC(=O)[C@H](Cc2ccc(O)cc2)NC1=O [Example 1072] ({CH2CO}-LYLVYSGWY[NMeF]LCG-NH2; thioether N-12)	80 nM
CC(C)C[C@@H]1NC(=O)[C@H](Cc2ccc(O)cc2)NC(=O)[C@H](Cc2ccccc2)NC(=O)CSC[C@@H](C(=O)NCC(N)=O)NC(=O)[C@H](CC(C)C)NC(=O)[C@H](Cc2ccccc2)N(C)C(=O)[C@H](Cc2ccc(O)cc2)NC(=O)[C@H](Cc2c[nH]c3ccccc23)NC(=O)CNC(=O)[C@H](CO)NC(=O)[C@H](C)NC(=O)[C@H](C(C)C)NC1=O [Example 1027] ({CH2CO}-FYLVASGWY[NMeF]LCG-NH2; thioether N-12)	870 nM
CC(C)C[C@@H]1NC(=O)[C@H](Cc2ccc(O)cc2)NC(=O)[C@H](Cc2ccccc2)NC(=O)CSC[C@@H](C(=O)NCC(N)=O)NC(=O)[C@H](CC(C)C)NC(=O)[C@H](Cc2ccccc2)N(C)C(=O)[C@H](Cc2ccc(O)cc2)NC(=O)[C@H](Cc2c[nH]c3ccccc23)NC(=O)CNC(=O)[C@H](CC(=O)O)NC(=O)[C@H](Cc2ccc(O)cc2)NC(=O)[C@H](C(C)C)NC1=O [Example 1017] ({CH2CO}-FYLVYDGWY[NMeF]LCG-NH2; thioether N-12)	14 nM
CC(C)C[C@@H]1NC(=O)[C@H](Cc2ccc(O)cc2)NC(=O)[C@H](Cc2ccccc2)NC(=O)CSC[C@@H](C(=O)NCC(N)=O)NC(=O)[C@H](CC(C)C)NC(=O)[C@H](Cc2ccccc2)N(C)C(=O)[C@H](Cc2ccc(O)cc2)NC(=O)[C@H](Cc2c[nH]c3ccccc23)NC(=O)CNC(=O)[C@H](CO)NC(=O)[C@H](Cc2ccccc2)NC(=O)[C@H](C(C)C)NC1=O [Example 1035] ({CH2CO}-FYLVFSGWY[NMeF]LCG-NH2; thioether N-12)	59 nM
CC(C)C[C@@H]1NC(=O)[C@H](Cc2ccc(O)cc2)NC(=O)[C@H](Cc2cnc[nH]2)NC(=O)CSC[C@@H](C(=O)NCC(N)=O)NC(=O)[C@H](CC(C)C)NC(=O)[C@H](Cc2ccccc2)N(C)C(=O)[C@H](Cc2ccc(O)cc2)NC(=O)[C@H](Cc2c[nH]c3ccccc23)NC(=O)CNC(=O)[C@H](CO)NC(=O)[C@H](Cc2ccc(O)cc2)NC(=O)[C@H](C(C)C)NC1=O [Example 1075] ({CH2CO}-HYLVYSGWY[NMeF]LCG-NH2; thioether N-12)	30 nM
CC(C)C[C@@H]1NC(=O)[C@H](Cc2ccc(O)cc2)NC(=O)[C@H]([C@@H](C)O)NC(=O)CSC[C@@H](C(=O)NCC(N)=O)NC(=O)[C@H](CC(C)C)NC(=O)[C@H](Cc2ccccc2)N(C)C(=O)[C@H](Cc2ccc(O)cc2)NC(=O)[C@H](Cc2c[nH]c3ccccc23)NC(=O)CNC(=O)[C@H](CO)NC(=O)[C@H](Cc2ccc(O)cc2)NC(=O)[C@H](C(C)C)NC1=O [Example 1073] ({CH2CO}-TYLVYSGWY[NMeF]LCG-NH2; thioether N-12)	249 nM
CC(C)C[C@@H]1NC(=O)[C@H](Cc2ccccc2)NC(=O)CSC[C@@H](C(=O)NCC(N)=O)NC(=O)[C@H](C(C)C)NC(=O)[C@H](Cc2ccccc2)N(C)C(=O)[C@H](CC(C)C)NC(=O)[C@H](Cc2c[nH]c3ccccc23)NC(=O)CN(C)C(=O)CNC(=O)[C@H](C(C)C)NC(=O)[C@H](Cc2c[nH]c3ccccc23)NC1=O [Example 1201]	39 nM
CC(C)C[C@@H]1NC(=O)[C@H](Cc2ccc(O)cc2)NC(=O)[C@H](Cc2ccccc2)NC(=O)CSC[C@@H](C(=O)NCC(=O)O)NC(=O)[C@H](CC(C)C)NC(=O)[C@H](Cc2ccccc2)N(C)C(=O)[C@H](Cc2ccc(O)cc2)NC(=O)[C@H](Cc2c[nH]c3ccccc23)NC(=O)CNC(=O)[C@H](CO)NC(=O)[C@H](Cc2ccc(O)cc2)NC(=O)[C@H](C(C)C)NC1=O [Example 1080] ({CH2CO}-FYLVYSGWY[NMeF]LCG-OH; thioether N-12)	217 nM
CC(C)C[C@@H]1NC(=O)[C@H](Cc2ccc(O)cc2)NC(=O)[C@H](Cc2ccccc2)NC(=O)CSC[C@@H](C(=O)NCC(N)=O)NC(=O)[C@H](CC(C)C)NC(=O)[C@H](Cc2ccccc2)N(C)C(=O)[C@H](Cc2ccc(O)cc2)NC(=O)[C@H](Cc2c[nH]c3ccccc23)NC(=O)CNC(=O)[C@H](CC(N)=O)NC(=O)[C@H](Cc2ccc(O)cc2)NC(=O)[C@H](C(C)C)NC1=O [Example 1021] ({CH2CO}-FYLVYNGWY[NMeF]LCG-NH2; thioether N-12)	5 nM
CCCC[C@H]1C(=O)N[C@@H](CC(C)C)C(=O)N[C@H](C(=O)NCCOCCOCC(=O)N[C@@H](CCCCN)C(N)=O)CSCC(=O)N[C@@H](Cc2ccccc2)C(=O)N[C@@H](Cc2ccc(O)cc2)C(=O)N[C@@H](Cc2c[nH]c3ccccc23)C(=O)N[C@@H](CO)C(=O)N[C@@H](CO)C(=O)N[C@@H](CCCNC(=N)N)C(=O)N(C)[C@@H](C)C(=O)N[C@@H](Cc2c[nH]c3ccccc23)C(=O)N[C@@H](Cc2ccc(O)cc2)C(=O)N1C [Example 1079] ({CH2CO}-FYWSSR[NMeA]WY[NMeNle]LC[AEEA]K-NH2; thioether N-12)	25 nM
CC(C)C[C@@H]1NC(=O)[C@H](Cc2ccccc2)NC(=O)CSC[C@@H](C(=O)NCC(=O)NCCOCCOCC(=O)O)NC(=O)[C@H](C)NC(=O)[C@H](Cc2ccc(O)cc2)NC(=O)[C@H](Cc2ccc(O)cc2)NC(=O)[C@H](Cc2c[nH]c3ccccc23)NC(=O)CNC(=O)[C@H](Cc2ccc(O)cc2)NC(=O)[C@H](CCCNC(=N)N)NC(=O)[C@H](C(C)C)NC(=O)[C@H](Cc2c[nH]c3ccccc23)NC1=O [Example 1087] ({CH2CO}-FLWVRYGWYYACG[AEEA]-OH; thioether N-12)	131 nM
CC(C)C[C@@H]1NC(=O)[C@H](Cc2ccc(O)cc2)NC(=O)[C@@H]2CCCN2C(=O)CSC[C@@H](C(=O)NCC(N)=O)NC(=O)[C@H](CC(C)C)NC(=O)[C@H](Cc2ccccc2)N(C)C(=O)[C@H](Cc2ccc(O)cc2)NC(=O)[C@H](Cc2c[nH]c3ccccc23)NC(=O)CNC(=O)[C@H](CO)NC(=O)[C@H](Cc2ccc(O)cc2)NC(=O)[C@H](C(C)C)NC1=O [Example 1067] ({CH2CO}-PYLVYSGWY[NMeF]LCG-NH2; thioether N-12)	515 nM
CC(C)C[C@@H]1NC(=O)[C@H](Cc2ccc(O)cc2)NC(=O)[C@H](Cc2ccccc2)NC(=O)CSC[C@@H](C(=O)NCC(N)=O)NC(=O)[C@H](CC(C)C)NC(=O)[C@H](Cc2ccccc2)N(C)C(=O)[C@H](Cc2ccc(O)cc2)NC(=O)[C@H](Cc2c[nH]c3ccccc23)NC(=O)CNC(=O)[C@H](CO)NC(=O)[C@@H](C)NC(=O)[C@H](C(C)C)NC1=O [Example 1060] ({CH2CO}-FYLV[dA]SGWY[NMeF]LCG-NH2; thioether N-12)	30 nM
CC[C@H](C)[C@@H]1NC(=O)[C@H](Cc2ccccc2)NC(=O)CSC[C@@H](C(N)=O)NC(=O)[C@H](C)NC(=O)[C@H](Cc2ccc(O)cc2)NC(=O)[C@H](Cc2ccc(O)cc2)NC(=O)[C@H](Cc2c[nH]c3ccccc23)NC(=O)CNC(=O)[C@H](Cc2ccc(O)cc2)NC(=O)[C@H](CCCNC(=N)N)NC(=O)[C@H](C(C)C)NC(=O)[C@H](Cc2c[nH]c3ccccc23)NC1=O [Example 1049] ({CH2CO}-FIWVRYGWYYAC-NH2; thioether N-12)	19 nM
CC(C)C[C@@H]1NC(=O)[C@H](Cc2ccc(O)cc2)NC(=O)[C@H](Cc2ccccc2)NC(=O)CSC[C@@H](C(=O)NCCOCCOCC(=O)N[C@@H](CCCCN)C(N)=O)NC(=O)[C@H](CC(C)C)NC(=O)[C@H](Cc2ccccc2)N(C)C(=O)[C@H](Cc2ccc(O)cc2)NC(=O)[C@H](Cc2c[nH]c3ccccc23)NC(=O)CNC(=O)[C@H](CO)NC(=O)[C@H](Cc2ccc(O)cc2)NC(=O)[C@H](C(C)C)NC1=O [Example 1089] ({CH2CO}-FYLVYSGWY[NMeF]LC[AEEA]K-NH2; thioether N-12)	77 nM
CC(C)C[C@@H]1NC(=O)[C@H](Cc2ccc(O)cc2)NC(=O)[C@H](Cc2ccccc2)NC(=O)CSC[C@@H](C(=O)NCC(N)=O)NC(=O)[C@H](CC(C)C)NC(=O)[C@H](Cc2ccccc2)N(C)C(=O)[C@H](Cc2ccc(O)cc2)NC(=O)[C@H](Cc2c[nH]c3ccccc23)NC(=O)CNC(=O)[C@@H](C)NC(=O)[C@H](Cc2ccc(O)cc2)NC(=O)[C@H](C(C)C)NC1=O [Example 1048] ({CH2CO}-FYLVY[dA]GWY[NMeF]LCG-NH2; thioether N-12)	666 nM
CC(C)C[C@@H]1NC(=O)[C@H](Cc2ccccc2)N(C)C(=O)[C@H](Cc2ccc(O)cc2)NC(=O)[C@H](Cc2c[nH]c3ccccc23)NC(=O)CNC(=O)[C@H](CO)NC(=O)[C@H](Cc2ccc(O)cc2)NC(=O)[C@H](C(C)C)NC(=O)[C@H](C)NC(=O)[C@H](Cc2ccc(O)cc2)NC(=O)[C@H](Cc2ccccc2)NC(=O)CSC[C@@H](C(=O)NCC(N)=O)NC1=O [Example 1040] ({CH2CO}-FYAVYSGWY[NMeF]LCG-NH2; thioether N-12)	17 nM
